Read-outs that look alike come from different tables or passages of the source. Numbered stars: 1 amine (or outer) side, 2 acyl side, 3 side chain; on linkers, the order of the positions; unused ones are H or OH. Bridge positions count the residues as written; N and C are the ends. Square brackets hold non-standard residues; d marks the D form. Peptide text beside a SMILES is read from it. * marks the point of attachment. X1 = NC(=O)CC(O)C(N[*:1])C(=O)[*:2]; NMeF = CN[CH](Cc1ccccc1)C(=O)O; NMeN = CN[CH](CC(N)=O)C(=O)O; X2 = CCC(C)CCCCCCCCCCC(=O)*
Experiments:
[1] = tested on: Pyricularia oryzae; type: cell-based; settings: line H malonomicin alone, concentrations in Table 8
[2] = tested on: Fusarium culmorum; assay: Liquid culture 96-well mixture assay with malonomicin, Fusarium culmorum, 72 hrs; type: cell-based; settings: read-out: control of fungal growth (% reduction)
Method: (§1) A stock solution for compound of Formula I(a) was produced in DMSO (max. 10 mg/ml). Malonomicin was produced according to Law et al, 2018 (Nature Catalys is |VOL 1|DECEMBER 2018|977-984). A stock solution of malonomicin was produced in water plus 0.025% Tween® 20.
(§2) Assays to test efficacy of mixtures of the lipopeptide compound of Formula I(a) in combination with malonomicin on the control of fungal pathogens in a liquid culture assay were designed for a 96well plate as outlined in table 1:
(§3) The 96 well plate design allows to compare disease control of the mixture with disease control of the respective single compound at the same rate.
(§4) A master plate with 10× concentrated solution of the compound stock solutions diluted in water plus 0.025% Tween® 20 was prepared. The concentration of DMSO (from the stock of compound of Formula (a)) and Tween® 20 was kept constant in all cells of the master plate. 10 μl was transferred from the master plate to a 96well test plate. The nutrient broth containing the fungal spores/mycelia fragments was then added to the test plate to give an end concentration of 1× for the tested compounds (as outlined in Table 8). The test plates were incubated in the dark at 24 °C and 96% rh. The inhibition of fungal growth was determined photometrically after ca 3 days, and percent fungal growth reduction relative to the untreated check was calculated.
Fusarium culmorum (EPPO Code: FUSACU)
Conidia of the fungus from cryogenic storage were directly mixed into nutrient broth (PDB: potato dextrose broth).

[3] = tested on: Sclerotinia sclerotiorum; assay: Liquid culture 96-well mixture assay with malonomicin, Sclerotinia sclerotiorum, 72 hrs; type: cell-based; settings: line H malonomicin alone, concentrations in Table 8
Method: as §1, §2, §3, §4
Sclerotinia sclerotiorum (EPPO Code: SCLESC)
Mycelial fragments of the fungus prepared from a fresh liquid culture were directly mixed into nutrient broth (PDB: potato dextrose broth).

[4] = tested on: Zymoseptoria tritici; assay: Leaf painting assay in wheat seedling, Zymoseptoria tritici; type: in vivo, Zymoseptoria tritici on wheat (variety Riband); settings: for % reduction of fungal growth: middle segment
Method: Wheat seedlings of the variety Riband (for Zymoseptoria tritici trials) or variety Arina (for Puccinia recondite trials) were grown in a glasshouse until 14 d after seeding. At this time, such seedlings usually have a first leaf fully emerged (designated L1), a second leaf fully emerged (L2) and a third leaf (L3) that was partially emerged and in the process of development. Using a permanent pen, two dots were applied on the second leaf such as to generate three segments of roughly equal size: Segment A (at the base), segment B (middle part) and segment C (upper part of the leaf). A stock solution of the test compound was produced in DMSO at a concentration of 10′000 ppm. […] The diluted compound was applied to the middle segment of L2 using a conventional cotton stick; the cotton stick was soaked in the diluted compound and rubbed several times on the adaxial leaf surface between the two marks. 1 day later, the complete plant was inoculated with a fungal spore suspension using a paint brush and application of the spore suspension until before run-off.
For infection with Zymoseptoria tritici: The test plants were inoculated by spraying a spore suspension on them 1 day after application (1.5Mio spores per ml in water supplemented with 0.01% Tween®20). After an incubation period of 4 days at 22 °C/21 °C. (day/night) and 95% rh, the inoculated test plants were kept at 22 °C/21 °C (day/night) and 70% rh in a greenhouse. Efficacy was assessed by visual evaluation directly when an appropriate level of disease appears on untreated check plants (usually >80% disease cover at 16-19 days after inoculation).
The three segments of the leaf were evaluated individually.

[5] = tested on: Glomerella lagenarium; assay: Liquid culture, Glomerella lagenarium (Colletotrichum lagenarium), Anthracnose, 3-4 days; type: cell-based; settings: Colletotrichum orbiculare, read-out: % reduction fungal growth
Method: (§5) Mycelia fragments or conidia suspensions of a fungus, prepared either freshly from liquid cultures of the fungus or from cryogenic storage, were directly mixed into nutrient broth.
(§6) A stock solution for compound of Formula I(a) and Formula I(b) was produced in DMSO (max. 10 mg/ml), which was diluted with water plus 0.025% Tween®20 to produce a 10× concentrated sample and 10 μl of this solution was pipetted into a microtiter plate (96-well format). The nutrient broth containing the fungal spores/mycelia fragments was then added to give an end concentration of the tested compound. The test plates were incubated in the dark at 24 °C and 96% rh. The inhibition of fungal growth was determined photometrically after 2-7 days, depending on the pathosystem, and percent antifungal activity relative to the untreated check was calculated.
(§7) The effect of the test compound (Formula I(a), I(b) and Lipopeptin A) was tested against the following fungi under the conditions as outlined above and specifically herein below:
Glomerella lagenarium (Colletotrichum lagenarium)/Liquid Culture (Anthracnose)
Conidia of the fungus from cryogenic storage were directly mixed into nutrient broth (PDB potato dextrose broth). The inhibition of growth was measured photometrically 3-4 days after application.

[6] = tested on: Zymoseptoria tritici; assay: Liquid culture, Zymoseptoria tritici (Septoria tritici), Septoria leaf blotch, 4-5 days; type: cell-based; settings: Zymoseptoria tritici, read-out: % reduction fungal growth
Method: as §5, §6, §7
Zymoseptoria tritici (Septoria tritici)/liquid culture (Septoria leaf blotch) Conidia of the fungus from cryogenic storage were directly mixed into nutrient broth (PDB potato dextrose broth). The inhibition of growth was determined photometrically 4-5 days after application.

[7] = tested on: ROS production induced by flg22; assay: Reactive Oxygen Species (ROS) burst assay with wheat leaf discs; settings: Triticum aestivum, foliar
[8] = plate column (2), highest malonomicin concentration, lines A-G with compound of Formula I(a) dilution series
[9] = plate column (3) of malonomicin dilution series, lines A-G with compound of Formula I(a)
[10] = plate column (4) of malonomicin dilution series, lines A-G with compound of Formula I(a)
[11] = plate column (5) of malonomicin dilution series, lines A-G with compound of Formula I(a)
[12] = plate column (6) of malonomicin dilution series, lines A-G with compound of Formula I(a)
[13] = plate column (7) of malonomicin dilution series, lines A-G with compound of Formula I(a)
[14] = plate column (8) of malonomicin dilution series, lines A-G with compound of Formula I(a)
[15] = plate column (9) of malonomicin dilution series, lines A-G with compound of Formula I(a)
[16] = plate column (10) of malonomicin dilution series, lines A-G with compound of Formula I(a)
[17] = plate column (11), lowest malonomicin concentration, lines A-G with compound of Formula I(a)
[18] = read-out: Fold change (peak ROS)

`NC[C@@H]1NC(=O)C(C(=O)CC(NC(=O)[C@@H](N)CO)(C(=O)O)C(=O)O)=C1O` [malonomicin, {[(2S)-2-amino-3-hydroxypropanoyl]amino}{2-[(5S)-5-(aminomethyl)-4-hydroxy-2-oxo-2,5-dihydro-1H-pyrrol-3-yl]-2-oxoethyl}malonic acid] was tested, and the “control of fungal growth (% reduction of growth in the test well as compared to untreated check)” value [1, 8] was 90%, the “control of fungal growth (% reduction of growth in the test well as compared to untreated check)” value [1, 9] was 70% and the “control of fungal growth (% reduction of growth in the test well as compared to untreated check)” value [1, 10] was 70%. The “control of fungal growth (% reduction of growth in the test well as compared to untreated check)” value [1, 11] was 50%, the “control of fungal growth (% reduction of growth in the test well as compared to untreated check)” value [1, 12] was 50% and the “control of fungal growth (% reduction of growth in the test well as compared to untreated check)” value [1, 13] was 20%. The “control of fungal growth (% reduction of growth in the test well as compared to untreated check)” value [1, 14] was 20%, the “control of fungal growth (% reduction of growth in the test well as compared to untreated check)” value [1, 15] was 0% and the “control of fungal growth (% reduction of growth in the test well as compared to untreated check)” value [1, 16] was 0%. The “control of fungal growth (% reduction of growth in the test well as compared to untreated check)” value [1, 17] was 0%, the inhibition of growth at 1 ppm ([2]; malonomicin 1.00 ppm) was 0% and the inhibition of growth at 3 ppm ([2]; malonomicin 3.00 ppm) was 0%. It also gave an inhibition of growth at 7.81 ppm ([2]; malonomicin 7.81 ppm) of 0%, an inhibition of growth at 15.63 ppm ([2]; malonomicin 15.63 ppm) of 0% and an inhibition of growth at 31.25 ppm ([2]; malonomicin 31.25 ppm) of 0%. For the same compound, the inhibition of growth at 62.5 ppm ([2]; malonomicin 62.5 ppm) was 0%, the inhibition of growth at 125 ppm ([2]; malonomicin 125 ppm) was 20% and the inhibition of growth at 250 ppm ([2]; malonomicin 250 ppm) was 20%. For the same compound, the inhibition of growth at 500 ppm ([2]; malonomicin 500 ppm) was 20%, the inhibition of growth at 1000 ppm ([2]; malonomicin 1000 ppm) was 20% and the “control of fungal growth (% reduction of growth in the test well as compared to untreated check)” value [3, 8] was 90%. The “control of fungal growth (% reduction of growth in the test well as compared to untreated check)” value [3, 9] was 90%, the “control of fungal growth (% reduction of growth in the test well as compared to untreated check)” value [3, 10] was 90% and the “control of fungal growth (% reduction of growth in the test well as compared to untreated check)” value [3, 11] was 70%. For the same compound, the “control of fungal growth (% reduction of growth in the test well as compared to untreated check)” value [3, 12] was 50%, the “control of fungal growth (% reduction of growth in the test well as compared to untreated check)” value [3, 13] was 20% and the “control of fungal growth (% reduction of growth in the test well as compared to untreated check)” value [3, 14] was 0%. For the same compound, the “control of fungal growth (% reduction of growth in the test well as compared to untreated check)” value [3, 15] was 0%, the “control of fungal growth (% reduction of growth in the test well as compared to untreated check)” value [3, 16] was 0% and the “control of fungal growth (% reduction of growth in the test well as compared to untreated check)” value [3, 17] was 0%.
With `CCC(C)CCCCCCCCCCC(=O)NC1C(=O)NC(CC(=O)O)C(=O)NC(C(O)CC(N)=O)C(=O)NC(CO)C(=O)N(C)C(CC(N)=O)C(=O)N(C)C(Cc2ccccc2)C(=O)NC(CCC(N)=O)C(=O)NC(CCC(=O)O)C(=O)OC1C` (stereo not shown) [Formula I(b)] (X2-TD[X1]S[NMeN][NMeF]QE; ester 1-C; configuration not given here) the “% reduction of fungal growth” value ([4]; 20 ppm) was 0%, the “% reduction of fungal growth” value ([4]; 200 ppm) was 31% and the “control on the treated area (middle segment)” value ([4]; up to, Table 6, Zymoseptoria tritici) was “up to 70%”. It also gave an inhibition of growth at 0.41 ppm ([5]; Table 2) of 0%, an inhibition of growth at 1.2 ppm ([5]; Table 2) of 0% and an inhibition of growth at 3.7 ppm ([5]; Table 2) of 0%. The inhibition of growth at 11 ppm ([5]; Table 2) was 0%, the inhibition of growth at 33 ppm ([5]; Table 2) was 0% and the inhibition of growth at 100 ppm ([5]; Table 2) was 0%. It also gave an inhibition of growth at 0.41 ppm ([5]; Table 3) of 0%, an inhibition of growth at 1.2 ppm ([5]; Table 3) of 0% and an inhibition of growth at 3.7 ppm ([5]; Table 3) of 0%. For the same compound, the inhibition of growth at 11 ppm ([5]; Table 3) was 0%, the inhibition of growth at 33 ppm ([5]; Table 3) was 0% and the inhibition of growth at 100 ppm ([5]; Table 3) was 0%. For the same compound, the inhibition of growth at 0.41 ppm ([6]; Table 2) was 0%, the inhibition of growth at 1.2 ppm ([6]; Table 2) was 0% and the inhibition of growth at 3.7 ppm ([6]; Table 2) was 0%. It also gave an inhibition of growth at 11 ppm ([6]; Table 2) of 50%, an inhibition of growth at 33 ppm ([6]; Table 2) of 70% and an inhibition of growth at 100 ppm ([6]; Table 2) of 70%. For the same compound, the inhibition of growth at 0.41 ppm ([6]; Table 3) was 0%, the inhibition of growth at 1.2 ppm ([6]; Table 3) was 0% and the inhibition of growth at 3.7 ppm ([6]; Table 3) was 0%. For the same compound, the inhibition of growth at 11 ppm ([6]; Table 3) was 90%, the inhibition of growth at 33 ppm ([6]; Table 3) was 90% and the inhibition of growth at 100 ppm ([6]; Table 3) was 90%. For the same compound, the fold induction at 1 ppm [7, 18] was 1.2, the fold induction at 25 ppm [7, 18] was 1.3 and the fold induction at 100 ppm [7, 18] was 3. For the same compound, the fold induction at 100 ppm ([7]; read-out: increase of ROS production induced by flg22 (factor)) was ≥ 2.7.
